Laboratory results reported in US11185100B2 (priority 2014, dated 2021).
Structures can show the parent of a compound that is named as a salt. Where two headings read alike, the source gives them in different places.

Columns and labels:
[1] = biological target: T1, T1R1/T1R3 receptor (Felis catus, UniProt E3UMS2); test: PAM screening of transmembrane compounds with GMP and Ala on T1R1/T1R3 in HEK293 cells (Example 8); format: cell-based, cat; conditions: for T1R1/T1R3 PAM: transmembrane compound at 0.01, 0.1 and 1 mM with GMP + Ala mixtures (T1-T4), PAM if response greater than sum of compound alone and GMP+Ala alone
From the text: PAM Screening Method: HEK293 cells that stably express T1R3 and inducibly express T1R1 were exposed to transmembrane compound alone or in combination with Ala and GMP to activate the umami receptor. Activation of the T1R1/T1R3 receptor was detected by a change in intracellular calcium levels using a calcium sensitive fluorescent dye and/or a luminescent reporter system. […] A FLIPR® Tetra or a FlexStation® 3 was used for data capture.
Dose response curves were generated for each transmembrane compound at concentrations of 0 (buffer only), 0.01, 0.1 and 1 mM, wherein each of the three concentrations of transmembrane compound was tested in combination with 0.03 mM GMP+100 mM Ala (T1); 0.6 mM GMP+10 mM Ala (T2); 0.1 mM GMP+60 mM Ala (T3) and 0.3 mM GMP+60 mM Ala (T4). The T4 mixture was also tested in a 2-fold dilution series (the T4(X) Concentration). In these experiments, the first test concentration was 2× (2 times) the T4 concentration. The subsequent test concentrations were 2-fold dilutions from that (1×, 0.5× etc.). This dilution series was tested with or without the addition of the test compound at a constant 0.3 mM concentration.
Activation of the umami receptor was also determined in the presence of 1 mM GMP+100 mM Ala to generate a “maximum” umami receptor activation level.

[2] = biological target: T1, T1R1/T1R3 receptor; test: Agonist screening of transmembrane compounds on T1R1/T1R3 in HEK293 cells (Example 8); format: cell-based, cat; conditions: for T1R1/T1R3 agonist: transmembrane compound tested at 0.01, 0.1 and 1 mM, HEK293 cells expressing T1R1/T1R3, calcium readout
Procedure: Agonist Screening Method: HEK293 cells that stably express T1R3 and inducibly express T1R1 were exposed to a transmembrane compound. Activation of the T1R1/T1R3 receptor was detected by a change in intracellular calcium levels using a calcium sensitive fluorescent dye and/or a luminescent reporter system. […] A FLIPR® Tetra or a FlexStation® 3 was used for data capture.
Each transmembrane compound was tested at concentrations of 0.01 mM, 0.1 mM, and 1 mM. […] To generate the dose response curves, the transmembrane compound was tested at concentrations of between 0.0001 mM and 1.0 mM in the presence of GMP and Ala.

[3] = biological target: T1, T1R1/T1R3 receptor; test: Activation of T1R1/T1R3 receptor by transmembrane compounds and nucleotide derivatives, conducted as in Examples 1, 2 and 5 (Example 7); format: cell-based, cat; conditions: for Max resp % of IMP +Alanine (20 mM): hek293 cells; for Activity: modulation of T1R1/T1R3
From the text: Methods: HEK293 cells that stably express T1R3 and inducibly express T1R1 were exposed to nucleotide derivatives alone to activate the umami receptor. Activation of the T1R1/T1R3 receptor was detected by a change in intracellular calcium levels using a calcium sensitive fluorescent dye. Cells that express T1R3 but not T1R1 were used as a control. A FLIPR® Tetra or a FlexStation® 3 was used for data capture.
Methods: HEK293 cells that stably express T1R3 and inducibly express T1R1 were exposed to nucleotide derivatives alone or in combination with one or more amino acids and/or one or more nucleotides to activate the umami receptor. Activation of the T1R1/T1R3 receptor was detected by a change in intracellular calcium levels using a calcium sensitive fluorescent dye and/or a luminescent reporter system. Cells that express T1R3 but not T1R1 were used as a control. A FLIPR® Tetra or a FlexStation® 3 was used for data capture.
(§1) Methods: HEK293 cells that stably express T1R3 and inducibly express T1R1 were exposed to transmembrane compounds alone or in combination with one or more amino acids and/or one or more nucleotides to activate the umami receptor. Activation of the T1R1/T1R3 receptor was detected by a change in intracellular calcium levels using a calcium sensitive fluorescent dye. Cells that express T1R3 but not T1R1 were used as a control. A FLIPR® Tetra or a FlexStation® 3 was used for data capture.
(§2) In each experiment, serial dilutions of up to 10 mM of the transmembrane compound were added to the T1R1/T1R3-expressing cells.

[4] = biological target: T1, T1R1/T1R3 receptor; test: Activation of T1R1/T1R3 receptor by transmembrane compounds alone or with alanine, IMP, GMP, phenylalanine; HEK293 cells, calcium fluorescence (Example 5); format: cell-based, cat; conditions: read-out: EC50 (effect with 0.2 mM IMP); Table 20 controls; in the presence of 0.2 mM IMP
From the text: as §1, §2

[5] = biological target: cat T1R1/T1R3 receptor (Felis catus, UniProt E3UMS2); test: cell-based; format: cell-based
In short: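 Umami receptor activation in HEK293 cells stably expressing T1R3 with inducible T1R1, exposed to nucleotide derivatives alone or combined with amino acids and/or nucleotides. Intracellular calcium read with a calcium-sensitive fluorescent dye and/or luminescent reporter; cells expressing T1R3 without T1R1 served as control.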

COC(=O)[C@H](Cc1ccccc1)NCc1ccccc1 [Formula 15, N-Benzyl-L-phenylalanine methyl ester hydrochloride]
T1R1/T1R3 PAM [1]: Yes
T1R1/T1R3 agonist [2]: Yes

O=C1CC(=O)N(Cc2ccccc2)C(=O)N1Cc1ccccc1 [1,3-dibenzylpyrimidine-2,4,6(1H,3H,5H)-trione]
Max resp ΔF/F +Alanine (20 mM) [3]: 0.2925 ΔF/F
Thres +Alanine (20 mM) [3]: 0.1 mM
Max resp % of Ala +IMP (0.2 mM) [3]: 35.7 % of Ala
Max resp ΔF/F +IMP (0.2 mM) [3]: 0.2775 ΔF/F
Thres +IMP (0.2 mM) [3]: 0.1 mM
Max resp % of IMP +Alanine (20 mM) [3]: 42.7 % of IMP
Activity [3]: active
agonist profile assessment (activation of T1R1/T1R3 by the compound alone) [2]: agonist activity

N#Cc1cccc(NC(=O)CN2C(=O)C(=O)N(Cc3ccccc3)C2=O)c1 [Formula 9, 2-(3-benzyl-2,4,5-trioxoimidazolidin-1-yl)-N-(3-cyanophenyl)acetamide]
T1R1/T1R3 PAM [1]: No
T1R1/T1R3 agonist [2]: No

O=C(CN1C(=O)C(=O)N(Cc2ccccc2)C1=O)c1ccc(Br)cc1 [Formula 3, 1-benzyl-3-(2-(4-bromophenyl)-2-oxoethyl)imidazolidine-2,4,5-trione]
T1R1/T1R3 PAM [1]: No
T1R1/T1R3 agonist [2]: No

O=C(CN1C(=O)C(=O)N(Cc2ccccc2)C1=O)c1ccccc1 [Formula 1, 1-benzyl-3-(2-oxo-2-phenylethyl)imidazolidine-2,4,5-trione]
T1R1/T1R3 PAM [1]: No
T1R1/T1R3 agonist [2]: No

COC(=O)C(NCc1ccccc1)c1ccccc1 (stereo not shown) [Methyl-2-benzylamino-2-phenylacetate]
PAM profile assessment (activation of T1R1/T1R3 in the presence of GMP and Alanine) [1]: PAM activity
agonist profile assessment (activation of T1R1/T1R3 by the compound alone) [2]: agonist

COC(=O)[C@@H](Cc1ccccc1)NCc1ccccc1.Cl [N-Benzyl-D-Phenylalanine methyl ester hydrochloride]
PAM profile assessment (activation of T1R1/T1R3 in the presence of GMP and Alanine) [1]: PAM activity
agonist profile assessment (activation of T1R1/T1R3 by the compound alone) [2]: agonist

COC(=O)[C@@H](Cc1ccccc1)NCc1ccccc1.Cl [Formula 16, N-Benzyl-D-Phenylalanine methyl ester hydrochloride]
T1R1/T1R3 PAM [1]: Yes
T1R1/T1R3 agonist [2]: Yes

O=C(CN1C(=O)C(=O)N(Cc2ccccc2)C1=O)c1ccc2c(c1)CCC2 [Formula 2, 1-benzyl-3-(2-(2,3-dihydro-1H-inden-5-yl)-2-oxoethyl)imidazolidine-2,4,5-trione]
T1R1/T1R3 PAM [1]: No
T1R1/T1R3 agonist [2]: No

O=C(CN1C(=O)C(=O)N(Cc2ccccc2)C1=O)c1ccc2c(c1)OCCCO2 [Formula 8, 1-benzyl-3-(2-(3,4-dihydro-2H-benzo[b][1,4]dioxepin-7-yl)-2-oxoethyl)imidazolidine-2,4,5-trione]
T1R1/T1R3 PAM [1]: Weak PAM
T1R1/T1R3 agonist [2]: No

Cl.N[C@@H](Cc1ccccc1)C(=O)OCc1ccccc1 [L-Phenylalanine benzyl ester hydrochloride]
PAM profile assessment (activation of T1R1/T1R3 in the presence of GMP and Alanine) [1]: PAM activity
agonist profile assessment (activation of T1R1/T1R3 by the compound alone) [2]: agonist

O=C(CN1C(=O)C(=O)N(CCc2cccs2)C1=O)c1ccc2c(c1)OCO2 [Formula 7, 1-(2-(benzo[d][1,3]dioxol-5-yl)-2-oxoethyl)-3-(2-(thiophen-2-yl)ethyl)imidazolidine-2,4,5-trione]
T1R1/T1R3 PAM [1]: No
T1R1/T1R3 agonist [2]: No

O=C1CC(=O)N(Cc2ccccc2)C(=O)N1Cc1ccccc1 [Formula 24, 1,3-dibenzylpyrimidine-2,4,6(1H,3H,5H)-trione]
T1R1/T1R3 PAM [1]: No
T1R1/T1R3 agonist [2]: Yes

COC(=O)[C@H](CC(C)C)NCc1ccccc1.Cl [Formula 18, Benzyl-L-leucine methyl ester hydrochloride]
T1R1/T1R3 PAM [1]: Yes
T1R1/T1R3 agonist [2]: Yes

COC(=O)[C@H](CC(C)C)NCc1ccccc1.Cl [Benzyl-L-leucine methyl ester hydrochloride]
PAM profile assessment (activation of T1R1/T1R3 in the presence of GMP and Alanine) [1]: PAM activity
agonist profile assessment (activation of T1R1/T1R3 by the compound alone) [2]: agonist

O=C(CN1C(=O)C(=O)N(Cc2ccccc2)C1=O)c1ccc2c(c1)OCCO2 [Formula 4, 1-benzyl-3-(2-(2,3-dihydrobenzo[b][1,4]dioxin-6-yl)-2-oxoethyl)imidazolidine-2,4,5-trione]
T1R1/T1R3 PAM [1]: No
T1R1/T1R3 agonist [2]: No

O=C(CN1C(=O)C(=O)N(Cc2ccccc2)C1=O)c1ccc(Cl)s1 [1-benzyl-3-(2-(5-chlorothiophen-2-yl)-2-oxoethyl)imidazolidine-2,4,5-trione]
PAM profile assessment (activation of T1R1/T1R3 in the presence of GMP and Alanine) [1]: PAM activity

COC(=O)C(NCc1ccccc1)c1ccccc1 (stereo not shown) [Formula 19, Methyl-2-benzylamino-2-phenylacetate]
T1R1/T1R3 PAM [1]: Yes
T1R1/T1R3 agonist [2]: Yes

O=C(CN1C(=O)C(=O)N(Cc2ccccc2)C1=O)c1ccc2c(c1)OCCCO2 [1-benzyl-3-(2-(3,4-dihydro-2H-benzo[b][1,4]dioxepin-7-yl)-2-oxoethyl)imidazolidine-2,4,5-trione]
PAM profile assessment (activation of T1R1/T1R3 in the presence of GMP and Alanine) [1]: PAM activity

CCCC(CCC)NC(=O)c1ccc2c(c1)OCO2 [Formula 14, N-(heptan-4-yl)benzo[d][1,3]dioxole-5-carboxamide]
T1R1/T1R3 PAM [1]: Yes
T1R1/T1R3 agonist [2]: Yes

N[C@@H](Cc1ccc(O)cc1)C(=O)OCc1ccccc1 [Formula 21, L-Tyrosine benzyl ester]
T1R1/T1R3 PAM [1]: No
T1R1/T1R3 agonist [2]: No

C[C@H](N)C(=O)O [L-Alanine, reference compound]
EC50 [4]: 13.6 ± 4.3 mM
EC50 ([5]; read-out: EC50): 13.6 ± 4.3 mM
Max resp % of Ala +IMP (0.2 mM) [3]: 100.0 % of Ala
Max resp ΔF/F +IMP (0.2 mM) [3]: 0.7775 ΔF/F
Thres +IMP (0.2 mM) [3]: 3.0 mM

Nc1nc2c(ncn2[C@@H]2O[C@H](COP(=O)(O)OP(=O)(O)O)[C@@H](O)[C@H]2O)c(=S)[nH]1 [6-Thioguanosine-5′-O-diphosphate]
Max resp. (ΔF/F) [5]: 1.047 ΔF/F
Threshold [5]: 0.03 mM
Max. resp. % of IMP ([5]; hek293 cells): 152.8 % of IMP
EC50 ([5]; in the presence of 20 mM alanine, read-out: EC50- with Ala): 0.18 ± 0.02 mM
Max resp ΔF/F +Alanine (20 mM) [3]: 1.0470 ΔF/F
Thres +Alanine (20 mM) [3]: 0.03 mM
Max resp % of Ala +IMP (0.2 mM) [3]: 9.3 % of Ala
Max resp ΔF/F +IMP (0.2 mM) [3]: 0.0720 ΔF/F
Max resp % of IMP +Alanine (20 mM) [3]: 152.8 % of IMP
Activity [3]: active
